# From ChEMBL document CHEMBL5108059, “Discovery of 2-Methyl-2-(4-(2-methyl-8-(1H-pyrrolo[2,3-b]pyridin-6-yl)-1H-naphtho[1,2-d]imidazol-1-yl)phenyl)propanenitrile as a Novel PI3K/mTOR Inhibitor with Enhanced Antitumor Efficacy In Vitro and In Vivo” (J Med Chem, 2022)
# The source made the active and inactive calls. The rule behind the calls is not given here.
# Experiments:
# HeLa [1] = assay: Induction of apoptosis in human HeLa cells assessed as viable cells at 0.15625 uM incubated for 36 hrs by Annexin V-FITC/PI staining based flow cytometric analysis (reference value: 96.14 %); assay type: functional; conditions: read-out: Activity
# NCI-H446 = assay: Antiproliferative activity against PTEN-null human NCI-H446 cells assessed as inhibition of cell growth incubated for 48 to 72 hrs by MTT assay; assay type: functional, cell-based
# HeLa [2] = assay: Induction of apoptosis in human HeLa cells assessed as early apoptotic cells at 0.625 uM incubated for 36 hrs by Annexin V-FITC/PI staining based flow cytometric analysis (reference value: 2.02 %); assay type: functional
# HeLa [3] = assay: Antiproliferative activity against human HeLa cells assessed as inhibition of cell growth incubated for 48 to 72 hrs by MTT assay; assay type: functional, cell-based
# HeLa [4] = assay: Antitumor activity against human HeLa cells xenografted in BALB/c nude mouse assessed as tumor growth inhibition at 60 mg/kg, IG administered daily for 30 days and measured every 2 days relative to control; assay type: functional; conditions: po, 720 h, time 30 day, read-out: TGI
# [5] = biological target: Serine/threonine-protein kinase mTOR (Rattus norvegicus, UniProt P42346); assay: Inhibition of rat brain mTOR using GST-p70S6K fusion protein as substrate preincubated for 30 mins followed by ATP addition and measured after 30 mins by K-Lisa assay; assay type: tissue-based
# HeLa [6] = assay: Induction of cell cycle arrest in human HeLa cells assessed as accumulation of cells at G0/G1 phase measured after 24 hrs by propidium iodide staining based flow cytometry analysis; assay type: functional; conditions: dose 0.15625-2.5 µM, DDE = dose-dependent effect
# HeLa [7] = assay: Induction of apoptosis in human HeLa cells xenografted in BALB/c nude mouse at 15 to 60 mg/kg, IG administered daily for 30 days by TUNEL assay; assay type: functional, organism-based; conditions: dose 15-60 mg/kg, time 30.0 day
# HeLa [8] = assay: Induction of apoptosis in human HeLa cells assessed as late apoptotic cells at 0.625 uM incubated for 36 hrs by Annexin V-FITC/PI staining based flow cytometric analysis (reference value: 1.4 %); assay type: functional
# HeLa [9] = assay: Antitumor activity against human HeLa cells xenografted in BALB/c nude mouse assessed as tumor growth inhibition at 15 mg/kg, IG administered daily for 30 days and measured every 2 days relative to control; assay type: functional; conditions: po, 720 h, time 30 day, read-out: TGI
# HeLa [10] = assay: Induction of apoptosis in human HeLa cells assessed as late apoptotic cells at 0.3125 uM incubated for 36 hrs by Annexin V-FITC/PI staining based flow cytometric analysis (reference value: 1.4 %); assay type: functional
# SW-620 [11] = assay: Antiproliferative activity against human SW620 cells assessed as inhibition of cell growth incubated for 48 to 72 hrs by MTT assay; assay type: functional, cell-based
# [12] = Toxicity in BALB/c nude mouse xenografted with human HeLa cells assessed as lethality at 15 to 60 mg/kg, IG administered daily for 30 days and measured every 2 days; assay type: organism-based; conditions: in vivo, po, 720 h, dose 15-60 mg/kg, time 30 day
# HeLa [13] = assay: Induction of apoptosis in human HeLa cells assessed as dead cells at 0.15625 uM incubated for 36 hrs by Annexin V-FITC/PI staining based flow cytometric analysis (reference value: 0.44 %); assay type: functional; conditions: 0.1562 µM
# [14] = Toxicity in BALB/c nude mouse xenografted with human HeLa cells assessed as pathological changes in lung at 60 mg/kg, IG administered daily for 30 days by hematoxylin and eosin staining based microscopic analysis; assay type: organism-based; conditions: in vivo, po, 720 h, time 30 day
# SW-620 [15] = assay: Inhibition of colony formation in human SW620 cells assessed as reduction in colony forming ability at 1.25 uM incubated for 15 days by crystal violet staining based analysis; assay type: functional; conditions: SW-620, 360 h, time 15 day
# [16] = Oral bioavailability in Sprague-Dawley rat at 10 mg/kg measured for 24 hrs by LC-MS/MS analysis; assay type: ADME, organism-based; conditions: in vivo
# [17] = Toxicity in BALB/c nude mouse xenografted with human HeLa cells assessed as reduction in body weight at 15 to 60 mg/kg, IG administered daily for 30 days and measured every 2 days; assay type: organism-based; conditions: in vivo, po, 720 h, dose 15-60 mg/kg, time 30 day
# HeLa [18] = assay: Induction of apoptosis in human HeLa cells assessed as dead cells at 2.5 uM incubated for 36 hrs by Annexin V-FITC/PI staining based flow cytometric analysis (reference value: 0.44 %); assay type: functional
# [19] = Toxicity in BALB/c nude mouse xenografted with human HeLa cells assessed as pathological changes in heart at 60 mg/kg, IG administered daily for 30 days by hematoxylin and eosin staining based microscopic analysis; assay type: organism-based; conditions: in vivo, po, 720 h, time 30 day
# HeLa [20] = assay: Induction of apoptosis in human HeLa cells assessed as late apoptotic cells at 2.5 uM incubated for 36 hrs by Annexin V-FITC/PI staining based flow cytometric analysis (reference value: 1.4 %); assay type: functional
# [21] = Toxicity in BALB/c nude mouse xenografted with human HeLa cells assessed as pathological changes in spleen at 60 mg/kg, IG administered daily for 30 days by hematoxylin and eosin staining based microscopic analysis; assay type: organism-based; conditions: in vivo, po, 720 h, time 30 day
# [22] = biological target: DNA-dependent protein kinase catalytic subunit (Homo sapiens) (UniProt P78527); assay: Inhibition of DNA-PK (unknown origin) at 1 uM
# DNA-dependent protein kinase catalytic subunit (Homo sapiens), sequence (P78527 whole entry): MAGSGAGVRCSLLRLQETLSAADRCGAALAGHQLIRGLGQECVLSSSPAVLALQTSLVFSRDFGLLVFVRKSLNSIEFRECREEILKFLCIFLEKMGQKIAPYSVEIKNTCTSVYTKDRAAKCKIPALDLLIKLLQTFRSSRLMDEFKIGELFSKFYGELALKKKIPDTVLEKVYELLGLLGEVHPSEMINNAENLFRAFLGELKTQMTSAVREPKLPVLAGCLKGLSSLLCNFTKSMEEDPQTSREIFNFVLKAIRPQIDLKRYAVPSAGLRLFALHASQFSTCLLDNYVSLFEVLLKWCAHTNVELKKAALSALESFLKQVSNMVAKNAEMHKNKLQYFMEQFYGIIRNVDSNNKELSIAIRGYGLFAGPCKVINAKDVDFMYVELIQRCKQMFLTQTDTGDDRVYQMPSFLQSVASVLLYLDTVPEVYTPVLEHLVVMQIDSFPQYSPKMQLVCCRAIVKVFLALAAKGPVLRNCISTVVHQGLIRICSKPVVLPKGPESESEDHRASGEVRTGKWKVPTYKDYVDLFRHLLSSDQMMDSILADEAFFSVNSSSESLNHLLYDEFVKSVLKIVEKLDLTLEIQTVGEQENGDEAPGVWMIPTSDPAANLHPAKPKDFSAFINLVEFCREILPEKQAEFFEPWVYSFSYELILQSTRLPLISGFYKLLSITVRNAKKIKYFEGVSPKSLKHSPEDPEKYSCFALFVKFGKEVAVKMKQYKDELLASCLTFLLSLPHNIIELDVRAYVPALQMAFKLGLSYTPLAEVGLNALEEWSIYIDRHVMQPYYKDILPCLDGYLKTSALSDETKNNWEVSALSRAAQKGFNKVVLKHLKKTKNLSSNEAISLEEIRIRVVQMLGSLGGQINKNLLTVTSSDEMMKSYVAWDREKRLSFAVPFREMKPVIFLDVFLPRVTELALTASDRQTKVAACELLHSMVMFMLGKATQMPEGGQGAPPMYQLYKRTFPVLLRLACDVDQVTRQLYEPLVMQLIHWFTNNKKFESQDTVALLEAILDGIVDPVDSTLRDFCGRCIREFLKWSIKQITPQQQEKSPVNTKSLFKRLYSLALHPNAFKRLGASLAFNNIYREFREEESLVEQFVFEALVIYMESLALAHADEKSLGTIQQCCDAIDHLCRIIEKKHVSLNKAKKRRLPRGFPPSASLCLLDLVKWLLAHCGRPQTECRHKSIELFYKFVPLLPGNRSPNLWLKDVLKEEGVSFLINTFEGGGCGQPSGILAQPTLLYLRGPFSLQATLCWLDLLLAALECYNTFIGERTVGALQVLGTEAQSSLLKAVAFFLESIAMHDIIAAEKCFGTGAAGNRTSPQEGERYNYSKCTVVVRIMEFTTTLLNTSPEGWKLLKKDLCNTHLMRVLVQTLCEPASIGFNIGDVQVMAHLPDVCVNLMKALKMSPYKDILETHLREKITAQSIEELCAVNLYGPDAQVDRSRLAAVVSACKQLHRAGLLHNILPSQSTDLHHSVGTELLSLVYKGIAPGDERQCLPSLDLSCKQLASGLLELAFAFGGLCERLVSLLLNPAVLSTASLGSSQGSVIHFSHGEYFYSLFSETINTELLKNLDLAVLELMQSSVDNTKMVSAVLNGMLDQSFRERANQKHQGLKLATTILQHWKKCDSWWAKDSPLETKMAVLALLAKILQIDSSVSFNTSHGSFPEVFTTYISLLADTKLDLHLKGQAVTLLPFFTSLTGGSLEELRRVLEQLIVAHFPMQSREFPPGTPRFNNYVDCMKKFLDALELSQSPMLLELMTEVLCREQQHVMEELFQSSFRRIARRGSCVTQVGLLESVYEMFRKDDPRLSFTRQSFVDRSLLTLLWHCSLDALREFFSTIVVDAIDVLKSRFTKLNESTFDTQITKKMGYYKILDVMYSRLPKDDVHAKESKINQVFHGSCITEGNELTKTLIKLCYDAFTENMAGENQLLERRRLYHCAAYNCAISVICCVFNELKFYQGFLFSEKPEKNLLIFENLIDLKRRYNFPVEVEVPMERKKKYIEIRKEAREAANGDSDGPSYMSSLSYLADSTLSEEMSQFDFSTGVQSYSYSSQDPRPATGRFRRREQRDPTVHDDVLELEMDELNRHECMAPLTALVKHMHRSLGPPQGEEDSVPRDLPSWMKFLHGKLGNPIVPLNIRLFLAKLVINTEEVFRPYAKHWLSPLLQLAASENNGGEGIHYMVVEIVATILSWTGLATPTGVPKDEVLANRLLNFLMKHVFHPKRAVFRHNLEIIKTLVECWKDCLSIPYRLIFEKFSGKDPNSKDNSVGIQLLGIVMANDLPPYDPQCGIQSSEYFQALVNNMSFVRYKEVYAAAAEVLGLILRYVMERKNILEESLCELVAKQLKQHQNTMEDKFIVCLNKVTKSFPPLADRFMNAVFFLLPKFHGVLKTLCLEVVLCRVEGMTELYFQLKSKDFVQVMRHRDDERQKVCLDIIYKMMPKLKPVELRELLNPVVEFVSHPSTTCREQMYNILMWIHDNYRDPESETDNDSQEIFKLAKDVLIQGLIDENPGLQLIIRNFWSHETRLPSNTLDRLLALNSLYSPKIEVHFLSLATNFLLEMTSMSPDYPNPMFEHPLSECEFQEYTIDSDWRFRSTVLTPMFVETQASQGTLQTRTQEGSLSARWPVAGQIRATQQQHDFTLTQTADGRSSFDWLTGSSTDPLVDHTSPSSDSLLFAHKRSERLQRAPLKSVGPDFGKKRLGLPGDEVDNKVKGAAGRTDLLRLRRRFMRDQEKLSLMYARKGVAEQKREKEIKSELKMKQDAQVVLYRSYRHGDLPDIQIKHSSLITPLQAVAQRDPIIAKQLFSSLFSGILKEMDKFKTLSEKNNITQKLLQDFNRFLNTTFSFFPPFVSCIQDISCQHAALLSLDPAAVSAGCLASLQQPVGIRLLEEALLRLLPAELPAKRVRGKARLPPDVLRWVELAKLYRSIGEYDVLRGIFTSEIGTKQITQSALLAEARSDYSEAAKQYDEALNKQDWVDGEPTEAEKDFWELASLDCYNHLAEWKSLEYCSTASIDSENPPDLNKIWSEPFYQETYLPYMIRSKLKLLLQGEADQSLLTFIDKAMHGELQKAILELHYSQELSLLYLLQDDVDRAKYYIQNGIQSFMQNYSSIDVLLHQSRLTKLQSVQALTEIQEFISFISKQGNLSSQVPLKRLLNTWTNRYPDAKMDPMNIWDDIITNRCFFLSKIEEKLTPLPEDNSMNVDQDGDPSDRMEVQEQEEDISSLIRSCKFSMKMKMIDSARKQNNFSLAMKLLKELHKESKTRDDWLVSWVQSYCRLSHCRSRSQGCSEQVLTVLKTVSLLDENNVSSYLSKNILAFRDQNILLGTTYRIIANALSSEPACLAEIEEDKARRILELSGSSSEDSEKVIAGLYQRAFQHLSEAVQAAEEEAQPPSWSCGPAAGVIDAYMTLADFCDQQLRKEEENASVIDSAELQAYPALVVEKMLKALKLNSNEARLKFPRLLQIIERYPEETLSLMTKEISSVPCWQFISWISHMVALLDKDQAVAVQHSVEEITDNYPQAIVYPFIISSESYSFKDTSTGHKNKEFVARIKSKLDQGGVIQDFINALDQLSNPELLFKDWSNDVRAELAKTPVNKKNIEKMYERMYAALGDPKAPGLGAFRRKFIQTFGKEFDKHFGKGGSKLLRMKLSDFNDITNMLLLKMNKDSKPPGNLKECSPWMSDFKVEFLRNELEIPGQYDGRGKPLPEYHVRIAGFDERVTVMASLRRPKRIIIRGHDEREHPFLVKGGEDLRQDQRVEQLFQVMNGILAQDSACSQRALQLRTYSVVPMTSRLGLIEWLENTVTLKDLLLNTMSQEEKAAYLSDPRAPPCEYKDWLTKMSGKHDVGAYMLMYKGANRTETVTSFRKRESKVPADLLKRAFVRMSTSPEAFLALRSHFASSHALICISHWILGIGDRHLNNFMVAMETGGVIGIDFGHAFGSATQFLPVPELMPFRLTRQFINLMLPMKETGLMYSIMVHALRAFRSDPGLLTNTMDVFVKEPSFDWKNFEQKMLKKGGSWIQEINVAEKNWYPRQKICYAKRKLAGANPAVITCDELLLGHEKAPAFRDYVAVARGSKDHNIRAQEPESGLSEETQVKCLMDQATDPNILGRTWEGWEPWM
# HeLa [23] = assay: Induction of apoptosis in human HeLa cells assessed as late apoptotic cells at 0.15625 uM incubated for 36 hrs by Annexin V-FITC/PI staining based flow cytometric analysis (reference value: 1.4 %); assay type: functional; conditions: 0.1562 µM
# [24] = biological target: Phosphatidylinositol 4,5-bisphosphate 3-kinase catalytic subunit gamma isoform (Homo sapiens, UniProt P48736); assay: Inhibition of PI3Kgamma (unknown origin) using L-alpha-phosphatidylinositol as substrate incubated for 120 mins in presence of ATP by Kinase Glo luminescence assay
# SW-620 [25] = assay: Antitumor activity against human SW620 cells xenografted in BALB/c nude mouse assessed as tumor growth inhibition at 30 mg/kg, IG administered daily for 30 days and measured every 2 days relative to control; assay type: functional; conditions: SW-620, po, 720 h, time 30 day, read-out: TGI
# [26] = Toxicity in BALB/c nude mouse xenografted with human SW620 cells assessed as reduction in body weight at 15 to 60 mg/kg, IG administered daily for 30 days and measured every 2 days; assay type: organism-based, SW-620; conditions: in vivo, po, 720 h, dose 15-60 mg/kg, time 30 day
# HeLa [27] = assay: Induction of apoptosis in human HeLa cells assessed as viable cells at 0.3125 uM incubated for 36 hrs by Annexin V-FITC/PI staining based flow cytometric analysis (reference value: 96.14 %); assay type: functional; conditions: read-out: Activity
# [28] = biological target: Phosphatidylinositol 4,5-bisphosphate 3-kinase catalytic subunit alpha isoform (Homo sapiens, UniProt P42336); assay: Inhibition of PI3Kalpha (unknown origin) using L-alpha-phosphatidylinositol as substrate incubated for 60 mins in presence of ATP by Kinase Glo luminescence assay
# Phosphatidylinositol 4,5-bisphosphate 3-kinase catalytic subunit alpha isoform, sequence (P42336 whole entry, canonical isoform): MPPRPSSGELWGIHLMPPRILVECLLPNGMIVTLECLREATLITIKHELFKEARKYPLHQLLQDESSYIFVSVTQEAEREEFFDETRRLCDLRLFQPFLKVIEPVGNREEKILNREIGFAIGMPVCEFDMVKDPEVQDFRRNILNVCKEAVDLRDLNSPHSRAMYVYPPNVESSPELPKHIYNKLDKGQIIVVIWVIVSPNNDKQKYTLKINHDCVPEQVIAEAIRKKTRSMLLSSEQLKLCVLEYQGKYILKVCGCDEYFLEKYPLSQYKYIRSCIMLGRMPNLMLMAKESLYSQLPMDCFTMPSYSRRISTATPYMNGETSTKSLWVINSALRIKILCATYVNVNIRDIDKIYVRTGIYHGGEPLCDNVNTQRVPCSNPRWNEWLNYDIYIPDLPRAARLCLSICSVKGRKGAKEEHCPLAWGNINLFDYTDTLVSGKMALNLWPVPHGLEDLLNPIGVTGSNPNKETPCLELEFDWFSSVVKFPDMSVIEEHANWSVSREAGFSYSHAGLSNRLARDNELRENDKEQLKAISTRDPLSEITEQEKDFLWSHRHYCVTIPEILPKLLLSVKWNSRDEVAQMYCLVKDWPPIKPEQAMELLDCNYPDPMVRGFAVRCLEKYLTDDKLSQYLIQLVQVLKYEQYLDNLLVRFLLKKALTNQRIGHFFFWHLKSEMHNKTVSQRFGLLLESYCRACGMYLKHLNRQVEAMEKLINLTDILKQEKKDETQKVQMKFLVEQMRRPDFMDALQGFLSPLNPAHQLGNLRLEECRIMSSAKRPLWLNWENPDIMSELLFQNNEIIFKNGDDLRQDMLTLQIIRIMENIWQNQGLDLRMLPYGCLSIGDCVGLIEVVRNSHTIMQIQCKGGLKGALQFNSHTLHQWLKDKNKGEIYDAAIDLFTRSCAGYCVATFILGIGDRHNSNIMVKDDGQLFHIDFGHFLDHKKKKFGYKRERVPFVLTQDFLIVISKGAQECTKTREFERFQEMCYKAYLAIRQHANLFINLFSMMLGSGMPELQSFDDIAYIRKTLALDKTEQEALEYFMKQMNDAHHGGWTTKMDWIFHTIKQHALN
# HeLa [29] = assay: Induction of apoptosis in human HeLa cells assessed as viable cells at 2.5 uM incubated for 36 hrs by Annexin V-FITC/PI staining based flow cytometric analysis (reference value: 96.14 %); assay type: functional; conditions: read-out: Activity
# Mus musculus = assay: In vivo inhibition of PI3K/mTOR signalling pathway in BALB/c nude mouse xenografted with human HeLa cells assessed as downregulation of Akt phosphorylation at Ser473 residue in tumor at 15 to 60 mg/kg, IG administered daily for 30 days; assay type: functional, organism-based; conditions: dose 15-60 mg/kg, time 30.0 day
structure (smiles),measurement,setting,value
Cc1nc2cnc3ccc(-c4cnc5[nH]ccc5c4)cc3c2n1-c1ccc(C(C)(C)C#N)nc1,viability at 0.1562 µM,HeLa [1],93.5%
same,IC50,NCI-H446,0.97 µM
same,Activity,HeLa [2],18.32%
same,IC50,HeLa [3],0.09 µM
same,inhibition in vivo at 60 mg/kg,HeLa [4],80.2%
same,IC50,[5],0.0207 µM
same,Activity,HeLa [6],Dde
same,Activity,HeLa [7],Active
same,Activity,HeLa [8],8.81%
same,inhibition in vivo at 15 mg/kg,HeLa [9],60.8%
same,Activity,HeLa [10],3%
same,IC50,SW-620 [11],0.16 µM
same,Activity,[12],Non-Toxic
same,Activity,HeLa [13],0.4%
same,Activity,[14],Non-Toxic
same,inhibition at 1.25 µM,SW-620 [15],100%
same,bioavailability,[16],76.8%
same,Activity,[17],Non-Toxic
same,Activity,HeLa [18],6.13%
same,Activity,[19],Non-Toxic
same,Activity,HeLa [20],38.86%
same,Activity,[21],Non-Toxic
same,inhibition,[22],Active
same,Activity,HeLa [23],1.92%
same,IC50,[24],0.005 µM
same,inhibition in vivo at 30 mg/kg,SW-620 [25],70.8%
same,Activity,[26],Non-Toxic
same,viability at 0.3125 µM,HeLa [27],89.9%
same,IC50,[28],0.004 µM
same,viability at 2.5 µM,HeLa [29],27.8%
same,inhibition,Mus musculus,Active
